Patent US10105357B2, “Indication of antibiotic drugs for preparation of cancer inhibition pharmaceutical composition” (LAUNX BIOMEDICAL CO., LTD., priority 2014, dated 2018)
Structures can show the parent of a compound that is named as a salt. Where two headings read alike, the source gives them in different places.

Columns and labels:
[1] = system: cancer cell lines; assay: Cell viability analysis (WST-1) on cancer cell lines; assay type: cell-based, human; details: drug 10 μM, 72 hours, WST-1; Table 3
[2] = system: HI650 (Lung Adenocarcinoma); assay: Cell viability analysis, lung cancer HI650; assay type: cell-based, human; details: Homo sapiens, NCI-H1650, 72 h
[3] = system: A549 (Lung Adenocarcinoma); assay: Cell viability analysis, lung cancer A549; assay type: cell-based, human; details: Homo sapiens, A549, 72 h
[4] = system: AGS (Gastric Adenocarcinoma); assay: Cell viability analysis, gastric cancer AGS; assay type: cell-based, human; details: Homo sapiens, 72 h
[5] = system: MKN-45 (Gastric Adenocarcinoma); assay: Cell viability analysis, gastric cancer MKN-45; assay type: cell-based, human; details: Homo sapiens, MKN-45, 72 h
[6] = system: Hep3B (hepatocellular carcinoma); assay: Cell viability analysis, hepatic cancer Hep3B; assay type: cell-based, human; details: Homo sapiens, Hep3B, 72 h, read-out: The results of antibiotic drug inhibiting cancer cell lines (cell viability analysis), Hep3B
[7] = system: LoVo (Colorectal Adenocarcinoma); assay: Cell viability analysis, colon cancer LoVo; assay type: cell-based, human; details: Homo sapiens, LoVo, 72 h
[8] = system: BCC (basal cell carcinoma); assay: Cell viability analysis, skin cancer BCC; assay type: cell-based, human; details: Homo sapiens, 72 h, read-out: The results of antibiotic drug inhibiting cancer cell lines (cell viability analysis), BCC
[9] = system: HeLa (Cervix Adenocarcinoma); assay: Cell viability analysis, cervical cancer HeLa; assay type: cell-based, human; details: Homo sapiens, HeLa, 72 h
[10] = system: C-33A (Cervical carcinoma); assay: Cell viability analysis, cervical cancer C-33A; assay type: cell-based, human; details: Homo sapiens, C-33-A, 72 h, read-out: The results of antibiotic drug inhibiting cancer cell lines (cell viability analysis), C-33A
[11] = system: PC3 (p53−) (Prostate Adenocarcinoma); assay: Cell viability analysis, prostate cancer PC3; assay type: cell-based, human; details: Homo sapiens, 72 h
[12] = system: TSGH-8301 (Urinary Bladder Carcinoma); assay: Cell viability analysis, bladder cancer TSGH-8301; assay type: cell-based, human; details: Homo sapiens, 72 h
[13] = system: T24; assay: Cell viability analysis, bladder cancer T24; assay type: cell-based, human; details: Homo sapiens, T-24, 72 h, read-out: The results of antibiotic drug inhibiting cancer cell lines (cell viability analysis), T24
[14] = system: MCF7 (Mammary Gland, Adenocarcinoma); assay: Cell viability analysis, breast cancer MCF7; assay type: cell-based, human; details: Homo sapiens, MCF7, 72 h
[15] = system: MDA-MB-231 (Mammary Gland, Adenocarcinoma); assay: Cell viability analysis, breast cancer MDA-MB-231; assay type: cell-based, human; details: Homo sapiens, MDA-MB-231, 72 h, read-out: The results of antibiotic drug inhibiting cancer cell lines (cell viability analysis), MDA-MB231
[16] = system: BxPC-3; assay: Cell viability analysis, pancreatic cancer BxPC-3; assay type: cell-based, human; details: Homo sapiens, BXPC-3, 72 h, read-out: The results of antibiotic drug inhibiting cancer cell lines (cell viability analysis), BxPC-3
[17] = system: AsPC-1; assay: Cell viability analysis, pancreatic cancer AsPC-1; assay type: cell-based, human; details: Homo sapiens, ASPC1, 72 h, read-out: The results of antibiotic drug inhibiting cancer cell lines (cell viability analysis), AsPC-1
[18] = system: TOV-21G; assay: Cell viability analysis, ovarian cancer TOV-21G; assay type: cell-based, human; details: Homo sapiens, TOV21G, 72 h, read-out: The results of antibiotic drug inhibiting cancer cell lines (cell viability analysis), TOV-21G
[19] = system: SAS (Tongue squamous cell carcinoma); assay: Cell viability analysis, tongue cancer SAS; assay type: cell-based, human; details: Homo sapiens, 72 h, read-out: The results of antibiotic drug inhibiting cancer cell lines (cell viability analysis), SAS
[20] = system: U-2OS; assay: Cell viability analysis, osteosarcoma U-2OS; assay type: cell-based, human; details: Homo sapiens, U2OS, 72 h, read-out: The results of antibiotic drug inhibiting cancer cell lines (cell viability analysis), U2OS
[21] = system: 786-O (Renal adenocarcinoma); assay: Cell viability analysis, renal cancer 786-O; assay type: cell-based, human; details: Homo sapiens, 786-0, 72 h, read-out: The results of antibiotic drug inhibiting cancer cell lines (cell viability analysis), 786-O
[22] = system: HCT116 (p53+) (Colorectal Carcinoma)
[23] = system: HepG2 (Hepatocellular Carcinoma); assay: Cell viability analysis, hepatic cancer HepG2; assay type: cell-based, human; details: Homo sapiens, HepG2, 72 h
[24] = system: A375 (Amelanotic Melanoma); assay: Cell viability analysis, skin cancer A375; assay type: cell-based, human; details: Homo sapiens, A-375, 72 h
[25] = system: NIH: OVCAR-3; assay: Cell viability analysis, ovarian cancer NIH: OVCAR-3; assay type: cell-based, human; details: Homo sapiens, OVCAR-3, 72 h, read-out: The results of antibiotic drug inhibiting cancer cell lines (cell viability analysis), NIH-OVCAR-3
[26] = system: HL-60 (Acute Promyelocytic Leukemia); assay: Cell viability analysis, leukemia HL-60; assay type: cell-based, human; details: Homo sapiens, HL-60, 72 h, read-out: cell viability (survival rate), HL-60, drug 10 μM, 72 hours, WST-1, OD450 nm
[27] = read-out: The results of antibiotic drug inhibiting cancer cell lines (cell viability analysis), H1650, H1650, repeated experiment
[28] = read-out: The results of antibiotic drug inhibiting cancer cell lines (cell viability analysis), A549, A549, repeated experiment
[29] = read-out: The results of antibiotic drug inhibiting cancer cell lines (cell viability analysis), AGS, repeated experiment
[30] = read-out: The results of antibiotic drug inhibiting cancer cell lines (cell viability analysis), MKN-45, MKN-45, repeated experiment
[31] = read-out: The results of antibiotic drug inhibiting cancer cell lines (cell viability analysis), LoVo, repeated experiment
[32] = read-out: The results of antibiotic drug inhibiting cancer cell lines (cell viability analysis), HeLa, repeated experiment
[33] = read-out: The results of antibiotic drug inhibiting cancer cell lines (cell viability analysis), PC-3, PC-3, repeated experiment
[34] = read-out: The results of antibiotic drug inhibiting cancer cell lines (cell viability analysis), TSGH-8301, TSGH-8301, repeated experiment
[35] = read-out: The results of antibiotic drug inhibiting cancer cell lines (cell viability analysis), MCF-7, MCF-7, repeated experiment
[36] = read-out: cell viability (survival rate), H1650, drug 10 μM, 72 hours, WST-1, OD450 nm
[37] = read-out: cell viability (survival rate), A549, drug 10 μM, 72 hours, WST-1, OD450 nm
[38] = read-out: cell viability (survival rate), AGS, drug 10 μM, 72 hours, WST-1, OD450 nm
[39] = read-out: cell viability (survival rate), MKN-45, drug 10 μM, 72 hours, WST-1, OD450 nm
[40] = read-out: The results of antibiotic drug inhibiting cancer cell lines (cell viability analysis), HepG2, HepG2, repeated experiment
[41] = read-out: cell viability (survival rate), HepG2, drug 10 μM, 72 hours, WST-1, OD450 nm
[42] = read-out: cell viability (survival rate), LoVo, drug 10 μM, 72 hours, WST-1, OD450 nm
[43] = read-out: The results of antibiotic drug inhibiting cancer cell lines (cell viability analysis), A375, A375, repeated experiment
[44] = read-out: cell viability (survival rate), A375, drug 10 μM, 72 hours, WST-1, OD450 nm
[45] = read-out: cell viability (survival rate), HeLa, drug 10 μM, 72 hours, WST-1, OD450 nm
[46] = read-out: cell viability (survival rate), PC3, drug 10 μM, 72 hours, WST-1, OD450 nm
[47] = read-out: cell viability (survival rate), TSGH, drug 10 μM, 72 hours, WST-1, OD450 nm
[48] = read-out: cell viability (survival rate), MCF7, drug 10 μM, 72 hours, WST-1, OD450 nm

SMILES	inhibition effect on different cancer cell lines [1]	viability at 10 µM [2, 27]	viability at 10 µM [3, 28]	viability at 10 µM [4, 29]	viability at 10 µM [5, 30]	viability at 10 µM [6]	viability at 10 µM [7, 31]	viability at 10 µM [8]	viability at 10 µM [9, 32]	viability at 10 µM [10]	viability at 10 µM [11, 33]	viability at 10 µM [12, 34]	viability at 10 µM [14, 35]	viability at 10 µM [15]	viability at 10 µM [16]	viability at 10 µM [17]	viability at 10 µM [18]	viability at 10 µM [19]	viability at 10 µM [20]	viability at 10 µM [21]	other results
CN(C)CCCN1c2ccccc2CCc2ccc(Cl)cc21 [Clomipramine hydrochloride (Anafranil), Clomipramine hydrochloride]	significant inhibition effect	103%	86.4%	122%	125%	135%	65.7%	124%	113%	118%	91.2%	139%	65.9%	117%	78.3%	77.2%	118%	51.6%	58.4%	80.3%	viability at 10 µM [13]: 109%; viability [22]: 137%
CC(=O)NC[C@H]1CN(c2ccc(N3CCOCC3)c(F)c2)C(=O)O1 [Linezolid (Zyvox), Linezolid]	significant inhibition effect	95.6%	82.1%	104%	137%	99.9%	89.5%	67.2%	89.2%	132%	115%	99.7%	73.1%	96.2%	95.6%	92.6%	78.2%	84%	99.8%	98.6%	viability at 10 µM [2, 36]: 51.3%; viability at 10 µM [3, 37]: 40.2%; viability at 10 µM [4, 38]: 70.8%; viability at 10 µM [5, 39]: 65.9%; viability at 10 µM [23, 40]: 107%; viability at 10 µM [23, 41]: 91.3%; viability at 10 µM [7, 42]: 91%; viability at 10 µM [24, 43]: 82.8%; viability at 10 µM [24, 44]: 57.6%; viability at 10 µM [9, 45]: 93.7%; viability at 10 µM [11, 46]: 67%; viability at 10 µM [12, 47]: 58.2%; viability at 10 µM [14, 48]: 66.3%; viability at 10 µM [25]: 110%; viability at 10 µM [26]: 129%; viability [22]: 107%
CCOc1ccc(NC(C)=O)cc1 [Phenacetin]	significant inhibition effect	90.1%	87.6%	122%	123%	106%	87.7%	119%	110%	114%	133%	128%	92.9%	91.7%	73.2%	90.5%	95.8%	81.9%	63.9%	92%	viability at 10 µM [2, 36]: 39.1%; viability at 10 µM [3, 37]: 34.4%; viability at 10 µM [4, 38]: 40.4%; viability at 10 µM [5, 39]: 75.1%; viability at 10 µM [23, 40]: 121%; viability at 10 µM [23, 41]: 72.5%; viability at 10 µM [7, 42]: 48.5%; viability at 10 µM [24, 43]: 106%; viability at 10 µM [24, 44]: 54.1%; viability at 10 µM [9, 45]: 57.2%; viability at 10 µM [11, 46]: 40.4%; viability at 10 µM [12, 47]: 23.3%; viability at 10 µM [14, 48]: 62.7%; viability at 10 µM [25]: 105%; viability at 10 µM [26]: 95.3%; viability [22]: 102%
